In article PMC8252026, “Photochemical Probe Identification of a Small‐Molecule Inhibitor Binding Site in Hedgehog Acyltransferase (HHAT)” (Angewandte Chemie (International Ed. in English), 2021):
“Also recorded” adds a separate entry of the source.

What was measured:
human HHAT [1] = target: T1, human HHAT (Homo sapiens, UniProt Q5VTY9); assay: Acyl-cLIP assay, dose-response inhibition of purified HHAT; format: biochemical; conditions: for HHAT inhibition (in words) / IC50: purified HHAT; for HHAT inhibition (in words): Acyl-cLIP; for IC50: real-time Acyl-cLIP, mean and 95 % CI, n=3
T1 construct: Full-length human HHAT (UniProt Q5VTY9); made in house
T1 sequence (Q5VTY9 whole entry): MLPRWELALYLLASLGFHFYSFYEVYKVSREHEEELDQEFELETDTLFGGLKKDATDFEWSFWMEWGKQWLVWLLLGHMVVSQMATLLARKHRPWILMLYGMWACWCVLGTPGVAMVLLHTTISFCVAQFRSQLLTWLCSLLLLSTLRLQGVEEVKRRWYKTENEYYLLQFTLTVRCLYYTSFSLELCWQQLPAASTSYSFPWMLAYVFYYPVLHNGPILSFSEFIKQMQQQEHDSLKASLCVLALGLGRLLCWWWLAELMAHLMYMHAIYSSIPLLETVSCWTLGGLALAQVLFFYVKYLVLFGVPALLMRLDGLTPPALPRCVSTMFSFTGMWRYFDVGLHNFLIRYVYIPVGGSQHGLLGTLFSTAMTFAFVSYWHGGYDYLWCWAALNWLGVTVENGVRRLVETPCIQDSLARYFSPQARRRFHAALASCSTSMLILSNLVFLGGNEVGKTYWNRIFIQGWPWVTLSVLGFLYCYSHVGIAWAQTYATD
Protocol: We recently reported the acylation‐coupled lipophilic induction of polarization (Acyl‐cLIP) assay, a facile and universally applicable method to monitor enzymes processing lipid post‐translational modifications which uses the hydrophobicity increase on lipidation to drive a polarized fluorescence readout. ^[15] Dose‐response analysis of inhibition of purified HHAT was conducted using real‐time Acyl‐cLIP analysis (Table 1).
AMBIC (ammonium bicarbonate); CDI (1,1’-carbonyldiimidazole); DCM (dichloromethane); DDM (n-dodecyl-β-D-maltopyranoside); DIPEA (N,N-diisopropylethylamine); DMF (dimethylformamide); DTT (dithiothreitol); EDTA (ethylenediaminetetraacetic acid); FAM (5/6-carboxyfluorescein); HEPES (4-(2-hydroxyethyl)-1-piperazineethanesulfonic acid); HOBt (hydroxybenzotriazole); TBME (tert-butyl methyl ether); TBTA (tris[(1-benzyl-1H-1,2,3-triazol-4-yl)methyl]amine); TCEP (tris(2-carboxyethyl)phosphine hydrochloride); TEA (triethylamine); TFA (trifluoroacetic acid); THF (tetrahydrofuran); TRIS (tris(hydroxymethyl)aminomethane).
All reagents were purchased from commercial sources (Sigma-Aldrich, Fisher Scientific, Acros Organics, Novabiochem) and used without further purification.
Pal-CoA (Sigma Aldrich) was stored in NaOAc (0.1 M, pH 6.0) at -80 °C. RUSKI-201 (1) was synthesised as previously described.[1b] The peptide comprising of residues 24-43 of SHH (residues 1-10 of the mature protein) labelled with 5/6-carboxyfluorescein (SHH-FAM) was prepared as previously described.
Mixtures described as % represent v/v unless otherwise stated.
Biological and Biochemical Methods
Full-length human HHAT (UniProt Q5VTY9) C -terminally fused with a 1D4 epitope tag was expressed and purified via antibody purification with Rho -1D4 antibody (University of British Columbia) coupled to CNBr-activated sepharose beads (GE Healthcare) as previously described.[9] Purified HHAT 0.1-0.2 mg/mL in storage buffer (10 mM HEPES, 150 mM NaCl, 5% glycerol, 0.025% (w/v) DDM, 0.0006% (w/v) cholesterol-hemisuccinate, pH 7.5) was flash-frozen in liquid nitrogen and stored at -80 °C.
The Acylation-coupled Lipophilic Induction of Polarisation (Acyl -cLIP) was performed as previously described,[9] using Rho-1D4 antibody purified HHAT. Briefly, HHAT was diluted to 45 µg/mL in solubilisation buffer (20 mM HEPES, 350 mM NaCl, 1% (w/v) DDM, 5% glycerol, pH 7.3) added to SHH-FAM (2 µM) in reaction buffer (100 mM MES, 20 mM NaCl, 1 mM DTT, 1 mM TCEP, 0.1% (w/v) BSA, pH 6.5) in a 1:10 (v/v) ratio, respectively. The HHAT/SHH-FAM solution (12 µL/well) was dispensed into a black 384-well plate (Corning, 3575). The reaction was initiated by addition of Pal-CoA (7.5 µM) in reaction buffer (8 µL/well), and fluorescence anisotropy measured every 1 min for 1 h on an EnVision Xcite 2104 (PerkinElmer).
Measurement used a FITC FP D505fp mirror module, FITC FP 480 nm excitation filter (30 nm bandwidth), FITC FP P-pol 535 nm first emission filter (40 nm bandwidth), and FITC FP S-pol […]
(§1) 535 nm second emission filter (40 nm bandwidth), measurement height = 9.52 mm, 8 flashes/well, PMT gain = 319, and G-factor = 1.09. Fluorescence anisotropy was calculated […]
(§2) Where S is signal in the S-channel, P is signal in the P-channel, and G is the G-factor.
(§3) Assay data were evaluated using Microsoft Excel 2013 and GraphPad Prism 5.0. Initial rate constants were determined by linear regression, normalized to DMSO negative controls and background corrected to positive controls with solubilization buffer instead of HHAT. The half-maximal inhibitory concentration (IC 50) was calculated using a 4-parameter sigmoidal dose-response curve fit. Determination of the mechanism of inhibition of IMP -1575 relative to Pal-CoA was performed by fitting equation 2 for a mixed model of inhibition[10] using nonlinear […]
Where v is the observed rate of reaction, Vmax is the maximum rate, [I] is the inhibitor concentration, [S] is the substrate concentration, Km is the substrate concentration at ½ Vmax, […]

HHAT = target: HHAT; set-up: method as in PMID 23416332; conditions: reported as noncompetitive with Pal-CoA; cited from earlier work
human HHAT [2] = target: T1, human HHAT; assay: Photocrosslinking to purified HHAT, CalFluor-647 CuAAC and in-gel fluorescence; format: binding; conditions: for crosslinking of probe to HHAT (in-gel fluorescence): probe 10 μM, purified HHAT, UV 365 nm 1 min
Text: These new insights led to design of photocrosslinking chemical probes 10 and 11 to investigate the small‐molecule binding site in HHAT (Figure 2 A). In probe 10 the secondary amine moiety was exchanged for a diazirine group, and the terminal alkyl chain replaced with an alkyne; probe 11 contains an additional carbon between the carbonyl and diazirine. The diazirine allows photoactivated chemical crosslinking to nearby residues in HHAT, with the alkyne allowing biorthogonal functionalization via copper(I)‐catalyzed azide‐alkyne cycloaddition (CuAAC, “click chemistry”) for subsequent analysis. […] The sidechains were synthesized and coupled to 2 (Scheme S4,5). […] Protein crosslinking was next investigated through CuAAC functionalization with a fluorophore and in‐gel fluorescence readout. As an integral membrane protein, HHAT presents substantial challenges in sample handling and cannot be precipitated to remove excess fluorophore which otherwise binds non‐specifically (data not shown). Fluorogenic azide CalFluor‐647 (Figure S8) ^[18] was therefore used to reduce background fluorescence from dye that had not reacted with alkyne probe. 10 or 11 (10 μM) were incubated with purified HHAT with or without UV irradiation (1 min). […]
Molecule for alignment. Compounds 1-9 (R)-enantiomers and IC50 values from the Acyl-cLIP assay were used as a Training Set . For the purpose of analysis of weakly active inhibitors, […]
Conformation Hunt was set to Normal, Alignment set to Normal, and Build Model set to Field
QSAR. Probes 10 and 11 were used as a Prediction Set .
Photoactivation Analysis by LC/MS
A solution of 10 or 11 (100 μM) in water was cooled on ice and irradiated using a custom-made UV light source (365 nm, 25 mW/cm2) for the indicated times. […]
All steps were performed in the dark in a cold room (4 °C), until specified otherwise. […] The gel was run until the loading dye had eluted from the gel (typically 55 min at 200 V) and the in-gel fluorescence […]
recorded (Excitation: 635 nm Emission: 669 nm) on a Typhoon FLA 9500 (GE Healthcare). […]

[3] = Photoactivation analysis by LC/MS under UV irradiation (365 nm); format: physicochemical; conditions: 100 μM in water on ice
human HHAT [4] = target: T1, human HHAT; assay: Acyl-cLIP inhibition kinetics at varying Pal-CoA concentrations (mixed model of inhibition); format: biochemical
Protocol: IMP‐1575 (50–0.023 μM) was therefore analyzed for effects on HHAT kinetics at varying Pal‐CoA concentrations (50–0.19 μM, Figure 3 B,C).
as §1, §2, §3
Where v is the observed rate of reaction, Vmax is the maximum rate, [I] is the inhibitor concentration, [S] is the substrate concentration, Km is the substrate concentration at ½ Vmax, Ki is the affinity of the inhibitor for the free enzyme, and α is the ratio of the affinity of the inhibitor for the enzyme-substrate complex (Ki’) to Ki (typically noted as Ki’/Ki).
Density-Functional Theory Modelling
Density-functional theory (DFT) predictions were performed using Gaussian 16 [11] and Orca (version 4.0.1.2).[12] The compound 6 structure was initially created using Avogadro software (1.2.0) and geometry -optimised using an MMFF94s force field. Avogadro was also employed to explore conformers of the structure using a “systematic rotor search”. DFT geometry optimisations were initially carried out on the MMFF94s optimised structures using either the 6-31G basis set (for the B3LYP and M062X functionals) or the def2/SVP basis set (for the CAM-B3LYP functional). Structures were then optimised with a higher -level basis set (6-311++G(d,p), for the B3LYP and M062X functional, and def2/TZVP for the CAM-B3LYP functional). […]

| SMILES | HHAT inhibition (in words) (human HHAT [1]) | IC50 (human HHAT [1]) [µM] | further results |
| --- | --- | --- | --- |
| Cc1cccc(C2c3ccsc3CCN2C(=O)CN(C)CC(C)C)n1 (stereo not shown) [Compound 7] | substantially reduced activity | ~25 |  |
| CCC(C)CNCC(=O)N1CCc2sccc2C1COc1cccc(C)c1 (stereo not shown) [RUSKI-43] |  |  | Ki (HHAT): 6.9 µM |
| C#CCCC1(CCC(=O)N2CCc3sccc3C2c2cccc(C)n2)N=N1 (stereo not shown) [Compound 11] |  | 2.4 | crosslinking of probe to HHAT (in-gel fluorescence) (human HHAT [2]): crosslinking of probe 11 to HHAT promoted by UV irradiation; also recorded: enhanced labelling with UV irradiation; activation half-life [3]: 0.533 min |
| Cc1cccc(C2NCCc3sccc32)n1 (stereo not shown) [Compound 2] | no inhibition | > 50 |  |
| Cc1cccc(C2c3ccsc3CCN2C(=O)NCCC(C)C)n1 (stereo not shown) [Compound 9] | substantially reduced activity | ~50 |  |
| CC(=O)N1CCc2sccc2C1c1cccc(C)n1 (stereo not shown) [Compound 3] |  | 13 |  |
| Cc1cccc(C2c3ccsc3CCN2C(=O)CN2CCCC(C)C2)n1 (stereo not shown) [Compound 8] | substantially reduced activity | ~50 |  |
| C#CCCC1(CC(=O)N2CCc3sccc3C2c2cccc(C)n2)N=N1 (stereo not shown) [Compound 10] |  | 16 | crosslinking of probe to HHAT (in-gel fluorescence) (human HHAT [2]): minimal crosslinking; also recorded: minimal labelling; activation half-life [3]: 3.3 min |

Now from value to molecule, other results behind:

| HHAT inhibition (in words) (human HHAT [1]) | IC50 (human HHAT [1]) [µM] | SMILES | further results |
| --- | --- | --- | --- |
|  | 3.7 | CC[C@H](C)CNCC(=O)N1CCc2sccc2C1c1cccc(C)n1 (stereo partly shown) [Compound 4] | fold reduced potency compared to 1 (human HHAT [1]; from Acyl-cLIP IC50): ≈ 2 fold |
|  | 5.8 | Cc1cccc(C2c3ccsc3CCN2C(=O)CNCCC(C)C)n1 (stereo not shown) [Compound 5] |  |
|  | 0.75 | Cc1cccc([C@H]2c3ccsc3CCN2C(=O)CNCC(C)C)n1 [(+)-6] | potency compared to (+/-)-6 (human HHAT [1]; from Acyl-cLIP IC50): two‐fold increased potency; competition of probe 11 crosslinking to HHAT (human HHAT [2]; 40-fold excess IMP-1575 (400 μM) vs probe 11 (10 μM)): reduced crosslinking to near background levels; Ki (human HHAT [4]; competitive with respect to Pal-CoA, IMP-1575 50-0.023 μM, Pal-CoA 50-0.19 μM, mixed model fit): 0.038 µM; mode of inhibition with respect to Pal-CoA (human HHAT [4]; mixed model analysis): competitive; α (mixed model equation for inhibition) (human HHAT [4]; ratio Ki'/Ki, with respect to Pal-CoA): 470 |
| no HHAT inhibition | > 50 | Cc1cccc(C2c3ccsc3CCN2C(=O)CNCC(C)C)n1 (single isomer, unassigned; (-)) [(-)-6] |  |
|  | 1.3 | Cc1cccc(C2c3ccsc3CCN2C(=O)CNCC(C)C)n1 (stereo not shown) [Compound 6] |  |
